According to patent US6635802B1, “Nuclear transfer using cells cultured in serum starvation media containing apoptosis inhibitors” (The Texas A&M University System, priority 2000, dated 2003):

Assays:
[1] = system: mouse ES cells; assay: Culture of mouse ES cells with NAC; type: cell-based
[2] = system: Bovine embryonic fibroblasts (BEF); assay: TUNEL assay (flow cytometry) of serum starved bovine embryonic fibroblasts; type: cell-based; conditions: MAC 0.7 pM, NAC 1 mM, GSH 2 mM; for 5-day Apoptosis (%): serum starvation 5 days, serum starved without inhibitor 15.0; for 10-day Apoptosis (%): serum starvation 10 days, serum starved without inhibitor 20.4
Protocol: Bovine embryonic fibroblasts (BEF) were isolated from the fetus with 3-5 cm crown-rump length. After two or three passages, cells were plated one million cells per plate (100 mm) with growth medium (DMEM) with 2 mM L-glutamine, 0.1 mM β-mercaptoethanol and 10% FBS. After 24 hours, cells were washed with PBS 3-5 times and then serum starvation medium with 0.5% FBS was added. In addition, cells were treated with serum starvation medium containing apoptosis inhibitors such as a2-macroglobulin (0.7 pM), N-acetylcysteine (1 mM) and glutathione (2 mM). Cells were treated with serum starvation with or without apoptosis inhibitors for 5 or 10 days. Then cells were trypsinized and counted.
After counting, cells were fixed and stained according to protocols with the APO-BRDU kit (Phoenix Flow Systems, San Diego, Calif.). Briefly, cells were fixed in 1% paraformaldehyde in PBS on ice for 15 minutes, washed in PBS, and fixed in 70% ethanol and stored at −20° C. until use. After removing the fixative, cells were washed twice and suspended in 50 μl of labeling solution containing Br-dUTP (bromolated deoxyuridine triphosphate) and TdT (terminal deoxynucleotidyl transferase) for 60 minutes at 37° C. TdT catalyzes the addition of Br-dUTP to the 3′-OH ends of DNA strand breaks in a template independent manner. To determine base line fluorescence, control cells were incubated without TdT. After rinsing, cells were incubated with an anti-BrdU monoclonal antibody conjugated to fluorescein for 30 minutes in the dark at room temperature; apoptotic cells which contain many free 3′-OH ends are intensely labeled, while non-apoptotic cells whose DNA is largely intact have little Br-dUTP incorporation and remain unlabeled. Following counterstaining with a propidium iodide/RNase A solution for 30 minutes in the dark, which allows simultaneous analysis of cell cycle position and apoptosis, cells were analyzed on a FACSCalibur™ flow cytometer (Becton Dickinson, San Jose, Calif.). Fluorescence emissions were measured at 582±21 nm for propidium iodide and 530±15 nm for fluorescein, without spectral compensation, after excitation at 488 nm by an argon-ion laser. For analysis, gates were set so that less than 2% of samples incubated without TdT were positive. Any event above this gate was deemed TUNEL positive for samples incubated with TdT.

## CC(=O)N[C@@H](CS)C(=O)O [NAC, N-acetylcysteine]
[1]; in the presence of NAC
  % viable cells, in words: not greatly affected
[1]; normal culture conditions and absence of BME
  Effect on mouse ES cells, in words: beneficial effect
[2]
  5-day Apoptosis (%): 1.8%
  10-day Apoptosis (%): 1.1%

B1: α2-macroglobulin (protein, UniProt P01023 24-1474, looked up)
Alpha-2-macroglobulin: SVSGKPQYMVLVPSLLHTETTEKGCVLLSYLNETVTVSASLESVRGNRSLFTDLEAENDVLHCVAFAVPKSSSNEEVMFLTVQVKGPTQEFKKRTTVMVKNEDSLVFVQTDKSIYKPGQTVKFRVVSMDENFHPLNELIPLVYIQDPKGNRIAQWQSFQLEGGLKQFSFPLSSEPFQGSYKVVVQKKSGGRTEHPFTVEEFVLPKFEVQVTVPKIITILEEEMNVSVCGLYTYGKPVPGHVTVSICRKYSDASDCHGEDSQAFCEKFSGQLNSHGCFYQQVKTKVFQLKRKEYEMKLHTEAQIQEEGTVVELTGRQSSEITRTITKLSFVKVDSHFRQGIPFFGQVRLVDGKGVPIPNKVIFIRGNEANYYSNATTDEHGLVQFSINTTNVMGTSLTVRVNYKDRSPCYGYQWVSEEHEEAHHTAYLVFSPSKSFVHLEPMSHELPCGHTQTVQAHYILNGGTLLGLKKLSFYYLIMAKGGIVRTGTHGLLVKQEDMKGHFSISIPVKSDIAPVARLLIYAVLPTGDVIGDSAKYDVENCLANKVDLSFSPSQSLPASHAHLRVTAAPQSVCALRAVDQSVLLMKPDAELSASSVYNLLPEKDLTGFPGPLNDQDNEDCINRHNVYINGITYTPVSSTNEKDMYSFLEDMGLKAFTNSKIRKPKMCPQLQQYEMHGPEGLRVGFYESDVMGRGHARLVHVEEPHTETVRKYFPETWIWDLVVVNSAGVAEVGVTVPDTITEWKAGAFCLSEDAGLGISSTASLRAFQPFFVELTMPYSVIRGEAFTLKATVLNYLPKCIRVSVQLEASPAFLAVPVEKEQAPHCICANGRQTVSWAVTPKSLGNVNFTVSAEALESQELCGTEVPSVPEHGRKDTVIKPLLVEPEGLEKETTFNSLLCPSGGEVSEELSLKLPPNVVEESARASVSVLGDILGSAMQNTQNLLQMPYGCGEQNMVLFAPNIYVLDYLNETQQLTPEIKSKAIGYLNTGYQRQLNYKHYDGSYSTFGERYGRNQGNTWLTAFVLKTFAQARAYIFIDEAHITQALIWLSQRQKDNGCFRSSGSLLNNAIKGGVEDEVTLSAYITIALLEIPLTVTHPVVRNALFCLESAWKTAQEGDHGSHVYTKALLAYAFALAGNQDKRKEVLKSLNEEAVKKDNSVHWERPQKPKAPVGHFYEPQAPSAEVEMTSYVLLAYLTAQPAPTSEDLTSATNIVKWITKQQNAQGGFSSTQDTVVALHALSKYGAATFTRTGKAAQVTIQSSGTFSSKFQVDNNNRLLLQQVSLPELPGEYSMKVTGEGCVYLQTSLKYNILPEKEEFPFALGVQTLPQTCDEPKAHTSFQISLSVSYTGSRSASNMAIVDVKMVSGFIPLKPTVKMLERSNHVSRTEVSSNHVLIYLDKVSNQTLSLFFTVLQDVPVRDLKPAIVKVYDYYETDEFAIAEYNAPCSKDLGNA
[2]
  5-day Apoptosis (%): 3.9%
  10-day Apoptosis (%): 4.6%
